{
  "source": "patent US20060116316A1",
  "about": "“Heterocyclic inhibitors of IRES-mediated translation and methods of use thereof” (priority 2004, published 2006)",
  "test_system": "HCV IRES",
  "assay": "HCV IRES reporter FACS assay (GFP expression ratio, intein-expressed cyclic peptides)",
  "format": "cell-based, Hepatitis C virus",
  "conditions": "ratio at least 1.20 = significant activity",
  "from_the_text": "[The source words this procedure for another variant and says it was used here with some conditions changed.] Cells producing libraries of cyclic 3-mers and 4-mers (i.e., libraries of cyclic peptides that contain 3 or 4 amino acid residues) were constructed using methods identical to those of Kinsella et al (J Biol. Chem. 2002 277:37512-8), except different oligonucleotides were used for library construction. Clones from this library were screened in an assay shown in FIG. 2 to identify IRES-inhibitory compounds.\nIn summary, separate cyclic 3-mer and cyclic 4-mer libraries were constructed such that each peptide of the library contained a fixed Ser, Thr or Cys residue (at position 1) and the remaining residues were randomized. For library construction, degenerate oligonucleotides of sequence 5′-[…](AGC/ACC/TGC)(NNK)2 or 3 TGCATCAGCGGCGACAG-3′ were annealed to the primer 5′-[…]-3′ and extended using the Expand PCR kit (Roche Molecular Biochemicals). The double-stranded DNA insert was digested and inserted into the BclI/DrdI sites of DnaBO-e-BFP (ACUC). The plasmid libraries were electroporated into ElectroMAX DH 10B competent E. coli (Invitrogen) for amplification on LB+amp agar medium. […] Expression of the intein is detected by detecting BFP expression. Expression of the intein (and the cyclic peptide produced by the intein) is suppressible by addition of exogenous doxycycline. The amino acid sequence of the junctions of the intein scaffold used in making the 3-mer library is Val-His-Asn-X3 or 4-Cys-Ile-Ser, where X3 or 4 are three or four contiguous amino acids.\nInfectious retroviral particles were produced by transfection of 15 µg of each library (as described in Swift et al, (1999). Current Protocols in Immunology Vol. 10.17C, pp. 1-17, Freeman, N.Y.) into approximately 5×10^6 Phoenix-A packaging cells. Each resulting library of retroviral particles was then used to infect 5×10^6 BJAB-S3A11 reporter cells and a FACS based selection was carried out to isolate cells with reduced HCV-IRES reporter output.\nIn detail, referring to FIG. 2, the cells used in the assay contained an IRES-dependent reporter system. […]. Also present in the cells is a control reporter system for assaying the activity of 5′ cap-dependent translation (the mechanism by which most cellular proteins are normally translated). The control reporter system contains a CMV promoter that drives the transcription of an RNA containing 5′ cap-dependent UTR, operably linked to an RNA encoding RFP (red fluorescent protein). Translation of RFP is dependent on the activity of the 5′ cap-dependent UTR.\nCells containing both the cyclic compound library and the reporter systems described above were first screened for survival upon exposure to diptheria toxin, and then screened by FACS to identify cells that had reduced GFP expression, as compared to RFP expression. Cells were expanded and replica-plated and grown in the presence or absence of dox (100 ng/ml) for four days. Plates were stimulated with IL-4 and GFP expression (relative to RFP) was monitored by flow cytometry. The IRES-inhibitory activity of a peptide is evaluated by calculating the ratio of the geometric mean of GFP expression of peptide positive cells (“peptide pos+” cells i.e., cells not contacted with dox) to the geometric mean of GFP expression of peptide negative cells (“peptide pos−” cells i.e., cells contacted with dox).\nCyclic peptides assigned higher scores have a greater IRES-inhibitory activity.\nThe number shown in parentheses after each of the amino acid sequences is the IRES-inhibitory activity ratio, as discussed above.",
  "key": {"[1]": {"conditions": "BJAB-S3A11 reporter cells, +/- dox 100 ng/ml four days, library intein junction Val-His-Asn-X1X2X3-Cys-Ile-Ser"}},
  "note": "Where a SMILES comes first, the peptide text is derived from it.",
  "data": [
    {"smiles": "CSCC[C@@H]1NC(=O)[C@H]([C@@H](C)O)NC(=O)[C@H](Cc2ccccc2)NC1=O", "note": "[cyclo-TMF, cyclo[TMF]] (cyclo(Phe-Thr-Met))", "values": [
      {"measurement": "IRES-inhibitory activity ratio (geometric mean GFP expression, peptide positive cells / peptide negative cells)", "setting": "[1]", "value": 1.37}
    ]},
    {"smiles": "CSCC[C@@H]1NC(=O)[C@H]([C@@H](C)O)NC(=O)[C@H](C(C)C)NC1=O", "note": "[cyclo-TMV, cyclo[TMV]] (cyclo(Met-Val-Thr))", "values": [
      {"measurement": "IRES-inhibitory activity ratio (geometric mean GFP expression, peptide positive cells / peptide negative cells)", "setting": "[1]", "value": 1.56}
    ]},
    {"smiles": "CSCC[C@@H]1NC(=O)[C@H]([C@@H](C)O)NC(=O)[C@H](Cc2c[nH]c3ccccc23)NC1=O", "note": "[cyclo-TMW, cyclo[TMW]] (cyclo(Met-Trp-Thr))", "values": [
      {"measurement": "IRES-inhibitory activity ratio (geometric mean GFP expression, peptide positive cells / peptide negative cells)", "setting": "[1]", "value": 2.1}
    ]},
    {"smiles": "C[C@@H](O)[C@@H]1NC(=O)[C@H](Cc2c[nH]c3ccccc23)NC(=O)[C@H](CC(N)=O)NC1=O", "note": "[cyclo-TQW, cyclo[TQW]]", "values": [
      {"measurement": "IRES-inhibitory activity ratio (geometric mean GFP expression, peptide positive cells / peptide negative cells)", "setting": "[1]", "value": 1.7}
    ]},
    {"smiles": "C[C@@H](O)[C@@H]1NC(=O)[C@H](Cc2c[nH]c3ccccc23)NC(=O)[C@H](CO)NC1=O", "note": "[cyclo-TSW, cyclo[TSW]] (cyclo(Ser-Trp-Thr))", "values": [
      {"measurement": "IRES-inhibitory activity ratio (geometric mean GFP expression, peptide positive cells / peptide negative cells)", "setting": "[1]", "value": 1.25}
    ]},
    {"smiles": "C[C@@H](O)[C@@H]1NC(=O)[C@H](CCCNC(=N)N)NC(=O)[C@H](Cc2ccccc2)NC(=O)[C@H](Cc2c[nH]c3ccccc23)NC1=O", "note": "[cyclo-TWFR, cyclo[TWFR]] (cyclo(FRTW))", "values": [
      {"measurement": "IRES-inhibitory activity ratio (geometric mean GFP expression, peptide positive cells / peptide negative cells)", "setting": "4-mers from mutant intein scaffold, junction Val-His-Asn-X1X2X3X4-Cys-Ser", "value": 1.56}
    ]},
    {"smiles": "C[C@@H](O)[C@@H]1NC(=O)[C@H](Cc2c[nH]c3ccccc23)NC(=O)[C@H](Cc2ccc(O)cc2)NC1=O", "note": "[cyclo-TYW, cyclo[TYW]] (cyclo(Thr-Tyr-Trp))", "values": [
      {"measurement": "IRES-inhibitory activity ratio (geometric mean GFP expression, peptide positive cells / peptide negative cells)", "setting": "[1]", "value": 2.23}
    ]}
  ]
}
